According to PubChem BioAssay AID248 (DTP/NCI, 2004):
Values joined by “and” are separate entries in the source; they are usually repeats but may differ in a detail not shown here. Identical values can stand only once. Inconclusive results and toxic doses are left out. Cut-off read from the data, not from the text of the source: active = T/C of 150% or more; inactive = T/C below 125%.

Test system: L1210 leukemia ip in BDF1 mice, survival T/C
Assay: NCI In Vivo Anticancer Drug Screen. Data for tumor model L1210 Leukemia (intraperitoneal) in B6D2F1 (BDF1) mice
Conditions: endpoint: mean survival time, higher = longer survival
Outline: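 Transplanted-tumor mice were given test agent; controls received vehicle only. Survival readings from the two groups were divided (treated over control).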

[1] = dose: 100.0 mg/kg/injection, schedule: Q04DX002 (ip), vehicle: saline with Tween-80
[2] = dose: 200.0 mg/kg/injection, schedule: Q04DX002 (ip), vehicle: saline with Tween-80
[3] = dose: 400.0 mg/kg/injection, schedule: Q04DX002 (ip), vehicle: saline with Tween-80
[4] = dose: 100.0 mg/kg/injection, schedule: Q04DX003 (ip), vehicle: Klucel (hydroxypropylcellulose) (HPC)
[5] = dose: 200.0 mg/kg/injection, schedule: Q04DX003 (ip), vehicle: Klucel (hydroxypropylcellulose) (HPC)
[6] = dose: 400.0 mg/kg/injection, schedule: Q04DX003 (ip), vehicle: Klucel (hydroxypropylcellulose) (HPC)
[7] = dose: 100.0 mg/kg/injection, schedule: Q01DX009 (ip), vehicle: saline
[8] = dose: 200.0 mg/kg/injection, schedule: Q01DX009 (ip), vehicle: saline
[9] = dose: 400.0 mg/kg/injection, schedule: Q01DX009 (ip), vehicle: saline
[10] = dose: 100.0 mg/kg/injection, schedule: Q04DX003 (ip), vehicle: saline
[11] = dose: 200.0 mg/kg/injection, schedule: Q04DX003 (ip), vehicle: saline
[12] = dose: 400.0 mg/kg/injection, schedule: Q04DX003 (ip), vehicle: saline

Measured: T/C

C[CH2][Ge]([CH2]C)([CH2]C)[CH2]C#N
inactive: dose: 5.0 mg/kg/injection, schedule: Q04DX002 (ip), vehicle: saline with Tween-80 100 % of control | dose: 10.0 mg/kg/injection, schedule: Q04DX002 (ip), vehicle: saline with Tween-80 103 % of control | dose: 20.0 mg/kg/injection, schedule: Q04DX002 (ip), vehicle: saline with Tween-80 100 % of control

CSc1ccc(OC(=O)Nc2cccc(Cl)c2)cc1
inactive: [1] 100 % of control | [2] 93 % of control | [3] 104 % of control

CCC1N2CCc3cc(OC)c(OC)cc3C2CCC1(O)Cc1ccccn1 (centres undefined)
inactive: dose: 100.0 mg/kg/injection, schedule: Q04DX003 (ip), vehicle: carboxymethylcellulose (CMC) 101 % of control | dose: 200.0 mg/kg/injection, schedule: Q04DX003 (ip), vehicle: carboxymethylcellulose (CMC) 101 % of control

O=c1cc(C2CCCCC2)c2ccccc2[nH]1
inactive: dose: 100.0 mg/kg/injection, schedule: Q04DX003 (ip), vehicle: gum acacia 91 % of control | dose: 200.0 mg/kg/injection, schedule: Q04DX003 (ip), vehicle: gum acacia 97 % of control | dose: 400.0 mg/kg/injection, schedule: Q04DX003 (ip), vehicle: gum acacia 91 % of control

COc1ccc(-c2c(-c3ccccc3)c(=O)oc3ccc4ccccc4c23)cc1
inactive: [4] 97 % of control | [5] 100 % of control | [6] 97 % of control

O=[N+]([O-])c1cccc(S(=O)(=O)Nc2cccc(C(F)(F)F)c2)c1
inactive: [7] 96 % of control | [8] 104 % of control | [9] 96 % of control

CCCCCCCCCC(=O)N1CCC(C)CC1
inactive: dose: 100.0 mg/kg/injection, schedule: Q04DX002 (ip), vehicle: saline 111 % of control | dose: 200.0 mg/kg/injection, schedule: Q04DX002 (ip), vehicle: saline 104 % of control | dose: 400.0 mg/kg/injection, schedule: Q04DX002 (ip), vehicle: saline 101 % of control

CC(=O)OCc1c(O)c2c(c(O)c1COC(C)=O)C(=O)C=CC2=O
inactive: dose: 2.0 mg/kg/injection, schedule: Q01DX009 (ip), vehicle: saline 96 % of control | dose: 4.0 mg/kg/injection, schedule: Q01DX009 (ip), vehicle: saline 96 % of control | dose: 8.0 mg/kg/injection, schedule: Q01DX009 (ip), vehicle: saline 88 % of control | dose: 16.0 mg/kg/injection, schedule: Q01DX009 (ip), vehicle: saline 91 % of control

NC(=S)N/N=C/c1c(O)ccc2ccccc12
inactive: dose: 100.0 mg/kg/injection, schedule: Q01DX001 (ip), vehicle: carboxymethylcellulose (CMC) 96 % of control | dose: 200.0 mg/kg/injection, schedule: Q01DX001 (ip), vehicle: carboxymethylcellulose (CMC) 94 % of control | dose: 400.0 mg/kg/injection, schedule: Q01DX001 (ip), vehicle: carboxymethylcellulose (CMC) 94 % of control

CCOCCN1C=C/C(=C/C=C/c2cc[n+](CCOCC)c3ccccc23)c2ccccc21
inactive: dose: 0.31 mg/kg/injection, schedule: Q04DX003 (ip), vehicle: saline 98 % of control | dose: 0.45 mg/kg/injection, schedule: Q01DX009 (ip), vehicle: saline 104 % of control | dose: 0.62 mg/kg/injection, schedule: Q04DX003 (ip), vehicle: saline 121 % of control | dose: 0.9 mg/kg/injection, schedule: Q01DX009 (ip), vehicle: saline 118 % of control | dose: 1.25 mg/kg/injection, schedule: Q01DX001 (ip), vehicle: saline 96 % of control | dose: 1.25 mg/kg/injection, schedule: Q04DX003 (ip), vehicle: saline 111 % of control | dose: 1.8 mg/kg/injection, schedule: Q04DX003 (ip), vehicle: saline 98 % of control

CCOC(=O)C(C(=O)OCC)C(C)(C)c1ccccc1
inactive: [7] 104 % of control | [8] 103 % of control | [9] 101 % of control

C(#CCN1CCOCC1)CCCN1CCOCC1
inactive: [10] 96 % of control | [11] 95 % of control | [12] 93 % of control

O=C(NNc1ccccc1)C1C2CC3OC(=O)C1C3C2 (centres undefined)
inactive: [10] 93 % of control | [11] 98 % of control | [12] 96 % of control

C/C=C/CCCCCCCC
inactive: dose: 100.0 mg/kg/injection, schedule: Q01DX001 (ip), vehicle: saline with Tween-80 93 % of control | dose: 200.0 mg/kg/injection, schedule: Q01DX001 (ip), vehicle: saline with Tween-80 95 % of control | dose: 400.0 mg/kg/injection, schedule: Q01DX001 (ip), vehicle: saline with Tween-80 96 % of control

CN=C(C)c1ccc(N(C)C)cc1
inactive: [4] 101 % of control | [5] 92 % of control | [6] 97 % of control

O=C1C=C2CCCC(=O)C2(Cc2ccccc2)CC1 (centres undefined)
inactive: dose: 100.0 mg/kg/injection, schedule: Q01DX009 (ip), vehicle: alcohol 103 % of control | dose: 200.0 mg/kg/injection, schedule: Q01DX009 (ip), vehicle: alcohol 92 % of control | dose: 400.0 mg/kg/injection, schedule: Q01DX009 (ip), vehicle: alcohol 96 % of control

CCCOC(=O)C#CC(=O)OCCC
inactive: dose: 1.56 mg/kg/injection, schedule: Q01DX001 (ip), vehicle: carboxymethylcellulose (CMC) 101 % of control | dose: 1.56 mg/kg/injection, schedule: Q01DX009 (ip), vehicle: carboxymethylcellulose (CMC) 93 % of control | dose: 1.56 mg/kg/injection, schedule: Q04DX002 (ip), vehicle: carboxymethylcellulose (CMC) 92 % of control and 98 % of control | dose: 1.56 mg/kg/injection, schedule: Q04DX003 (ip), vehicle: carboxymethylcellulose (CMC) 101 % of control | dose: 3.13 mg/kg/injection, schedule: Q01DX001 (ip), vehicle: carboxymethylcellulose (CMC) 94 % of control | dose: 3.13 mg/kg/injection, schedule: Q01DX009 (ip), vehicle: carboxymethylcellulose (CMC) 92 % of control and 86 % of control | dose: 3.13 mg/kg/injection, schedule: Q04DX002 (ip), vehicle: carboxymethylcellulose (CMC) 92 % of control and 98 % of control | dose: 3.13 mg/kg/injection, schedule: Q04DX003 (ip), vehicle: carboxymethylcellulose (CMC) 98 % of control | dose: 6.25 mg/kg/injection, schedule: Q01DX001 (ip), vehicle: carboxymethylcellulose (CMC) 97 % of control | dose: 6.25 mg/kg/injection, schedule: Q01DX009 (ip), vehicle: carboxymethylcellulose (CMC) 93 % of control and 89 % of control | dose: 6.25 mg/kg/injection, schedule: Q04DX002 (ip), vehicle: carboxymethylcellulose (CMC) 103 % of control and 104 % of control | dose: 6.25 mg/kg/injection, schedule: Q04DX003 (ip), vehicle: carboxymethylcellulose (CMC) 106 % of control

CCOC(=O)C(N=Nc1nn[nH]n1)C(C)=O (centres undefined)
inactive: dose: 100.0 mg/kg/injection, schedule: Q04DX003 (ip), vehicle: acetone 109 % of control | dose: 200.0 mg/kg/injection, schedule: Q04DX003 (ip), vehicle: acetone 94 % of control | dose: 400.0 mg/kg/injection, schedule: Q04DX003 (ip), vehicle: acetone 108 % of control

O=[N+]([O-])c1ccc2c(c1)OCCOCCOCCOCCO2
inactive: dose: 100.0 mg/kg/injection, schedule: Q04DX002 (ip), vehicle: Klucel (hydroxypropylcellulose) (HPC) 95 % of control | [1] 93 % of control | dose: 200.0 mg/kg/injection, schedule: Q04DX002 (ip), vehicle: Klucel (hydroxypropylcellulose) (HPC) 103 % of control | [2] 104 % of control | [3] 87 % of control

CCOC(=O)c1cc2c(-c3ccccc3)c(-c3ccccc3)c(-c3ccccc3)c(-c3ccccc3)n2n1
inactive: dose: 100.0 mg/kg/injection, schedule: Q01DX001 (ip), vehicle: saline 93 % of control | dose: 400.0 mg/kg/injection, schedule: Q01DX001 (ip), vehicle: saline 93 % of control
